Test results: patent US20070082880A1 (priority 2005, published 2007)

Biological target: T1, human PKCθ full length enzyme (Homo sapiens, UniProt Q04759)
T1 construct: human PKCθ full length enzyme (Panvera Catalog No. P2996); purchased Panvera P2996
Assay: PKCθ IMAP Assay
Format: biochemical
Conditions: average value when one or more samples were tested; ATP 6 uM, PKCθ 1 nM
Method in brief: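 IMAP fluorescence polarization after 20 min with binding beads measured phosphorylation of 100 nM 5FAM-peptide. Reactions held 1 nM full-length human PKCθ, 6 uM ATP, 5% DMSO and DTT-containing buffer, 25 min at room temperature. Compounds tested as 2:1 serial dilutions; controls lacked ATP or enzyme.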

T1 sequence (Q04759 whole entry): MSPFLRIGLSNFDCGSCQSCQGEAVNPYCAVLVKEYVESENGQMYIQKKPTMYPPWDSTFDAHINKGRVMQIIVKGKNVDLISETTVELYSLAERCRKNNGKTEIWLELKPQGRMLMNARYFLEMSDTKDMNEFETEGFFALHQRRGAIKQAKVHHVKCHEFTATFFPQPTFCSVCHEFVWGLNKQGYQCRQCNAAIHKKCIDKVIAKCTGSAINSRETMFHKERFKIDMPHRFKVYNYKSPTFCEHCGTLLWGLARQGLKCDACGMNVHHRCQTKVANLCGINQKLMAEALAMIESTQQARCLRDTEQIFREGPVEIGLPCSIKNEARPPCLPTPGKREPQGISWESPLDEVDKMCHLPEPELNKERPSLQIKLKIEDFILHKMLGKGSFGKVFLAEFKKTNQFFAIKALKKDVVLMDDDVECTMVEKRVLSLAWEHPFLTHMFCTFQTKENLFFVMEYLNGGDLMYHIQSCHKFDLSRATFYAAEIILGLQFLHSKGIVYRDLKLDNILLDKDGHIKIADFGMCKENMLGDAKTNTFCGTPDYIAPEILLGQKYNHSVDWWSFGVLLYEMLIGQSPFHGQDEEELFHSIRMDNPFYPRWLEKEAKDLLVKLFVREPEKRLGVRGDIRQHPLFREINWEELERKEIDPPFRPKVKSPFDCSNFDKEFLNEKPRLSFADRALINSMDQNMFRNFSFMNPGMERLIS

| IC50 | Compound |
| --- | --- |
| 187 nM | Cc1c(Nc2c(C#N)cnc3sc(C(=O)NCCc4ccccc4)cc23)ccc2[nH]ccc12 [Compound 260, 5-cyano-4-[(4-methyl-1H-indol-5-yl)amino]-N-(2-phenylethyl)thieno[2,3-b]pyridine-2-carboxamide] |
| 222 nM | Cc1c(Nc2c(C#N)cnc3sc(C(=O)N(C)C)cc23)ccc2[nH]ccc12 [Compound 261, 5-cyano-N,N-dimethyl-4-[(4-methyl-1H-indol-5-yl)amino]thieno[2,3-b]pyridine-2-carboxamide] |
| 92 nM | COCCNC(=O)c1cc2c(Nc3ccc4[nH]ccc4c3C)c(C#N)cnc2s1 [Compound 262, 5-cyano-N-(2-methoxyethyl)-4-[(4-methyl-1H-indol-5-yl)amino]thieno[2,3-b]pyridine-2-carboxamide] |
| 71 nM | Cc1c(Nc2c(C#N)cnc3sc(C(=O)Nc4cccnc4)cc23)ccc2[nH]ccc12 [Compound 263, 5-cyano-4-[(4-methyl-1H-indol-5-yl)amino]-N-pyridin-3-ylthieno[2,3-b]pyridine-2-carboxamide] |
| 669 nM | N#Cc1cnc2sc(C(=O)N3CCCC3)cc2c1Nc1cccc2[nH]ccc12 [Compound 264, 4-(1H-indol-4-ylamino)-2-(pyrrolidin-1-ylcarbonyl)thieno[2,3-b]pyridine-5-carbonitrile] |
| 1250 nM | N#Cc1cnc2sc(CN3CCc4ccccc4C3)cc2c1Nc1ccc2[nH]ccc2c1 [Compound 268, 2-(3,4-dihydroisoquinolin-2(1H)-ylmethyl)-4-(1H-indol-5-ylamino)thieno[2,3-b]pyridine-5-carbonitrile] |
| 4030 nM | N#Cc1cnc2sc(CN3CCN(c4ccccc4)CC3)cc2c1Nc1ccc2[nH]ccc2c1 [Compound 269, 4-(1H-indol-5-ylamino)-2-[(4-phenylpiperazin-1-yl)methyl]thieno[2,3-b]pyridine-5-carbonitrile] |
| 45 nM | Cc1c(Nc2c(C#N)cnc3sc(/C=C/CCN4CCN(C)CC4)cc23)ccc2[nH]ccc12 [Compound 272, 4-[(4-methyl-1H-indol-5-yl)amino]-2-[(1E)-4-(4-methylpiperazin-1-yl)but-1-en-1-yl]thieno[2,3-b]pyridine-5-carbonitrile] |
| 23 nM | CCOC(=O)/C=C/c1cc2c(Nc3ccc4[nH]ccc4c3C)c(C#N)cnc2s1 [Compound 282, ethyl (2E)-3-{5-cyano-4-[(4-methyl-1H-indol-5-yl)amino]thieno[2,3-b]pyridin-2-yl}acrylate] |
| 2070 nM | N#Cc1cnc2sc(/C=C/C(=O)NCCO)cc2c1Nc1ccc2[nH]ccc2c1 [Compound 289, (2E)-3-[5-cyano-4-(1H-indol-5-ylamino)thieno[2,3-b]pyridin-2-yl]-N-(2-hydroxyethyl)acrylamide] |
| 330 nM | CN1CCN(C(=O)/C=C/c2cc3c(Nc4ccc5[nH]ccc5c4)c(C#N)cnc3s2)CC1 [Compound 290, 4-(1H-indol-5-ylamino)-2-[(1E)-3-(4-methylpiperazin-1-yl)-3-oxoprop-1-en-1-yl]thieno[2,3-b]pyridine-5-carbonitrile] |
| 183 nM | N#Cc1cnc2sc(/C=C/C(N)=O)cc2c1Nc1ccc2[nH]ccc2c1 [Compound 292, (2E)-3-[5-cyano-4-(1H-indol-5-ylamino)thieno[2,3-b]pyridin-2-yl]acrylamide] |
| 33600 nM | N#Cc1cnc2sc(/C=C/C(=O)Nc3cccnc3)cc2c1Nc1ccc2[nH]ccc2c1 [Compound 293, (2E)-3-[5-cyano-4-(1H-indol-5-ylamino)thieno[2,3-b]pyridin-2-yl]-N-pyridin-3-ylacrylamide] |
| 4 nM | Cc1c(Nc2c(C#N)cnc3sc(/C=C/C(=O)N4CCCC4)cc23)ccc2[nH]ccc12 [Compound 294, 4-[(4-methyl-1H-indol-5-yl)amino]-2-[(1E)-3-oxo-3-pyrrolidin-1-ylprop-1-en-1-yl]thieno[2,3-b]pyridine-5-carbonitrile] |
| 43 nM | Cc1c(Nc2c(C#N)cnc3sc(/C=C/C(=O)N4CCN(C)CC4)cc23)ccc2[nH]ccc12 [Compound 295, 4-[(4-methyl-1H-indol-5-yl)amino]-2-[(1E)-3-(4-methylpiperazin-1-yl)-3-oxoprop-1-en-1-yl]thieno[2,3-b]pyridine-5-carbonitrile] |

The next lines start with the compound.

| Compound | IC50 |
| --- | --- |
| Cc1c(Nc2c(C#N)cnc3sc(C(=O)N4CCNCC4)cc23)ccc2[nH]ccc12 [Compound 265, 4-[(4-methyl-1H-indol-5-yl)amino]-2-(piperazin-1-ylcarbonyl)thieno[2,3-b]pyridine-5-carbonitrile] | 232 nM |
| Cc1c(Nc2c(C#N)cnc3sc(C(=O)NC4CCNCC4)cc23)ccc2[nH]ccc12 [Compound 266, 5-cyano-4-[(4-methyl-1H-indol-5-yl)amino]-N-piperidin-4-ylthieno[2,3-b]pyridine-2-carboxamide] | 44 nM |
| C=C/C=C/c1cc2c(Nc3ccc4[nH]ccc4c3)c(C#N)cnc2s1 [Compound 270, 2-[(1E)-buta-1,3-dien-1-yl]-4-(1H-indol-5-ylamino)thieno[2,3-b]pyridine-5-carbonitrile] | 201 nM |
| Cc1c(Nc2c(C#N)cnc3sc(/C=C/CN4CCOCC4)cc23)ccc2[nH]ccc12 [Compound 275, 4-[(4-methyl-1H-indol-5-yl)amino]-2-[(1E)-3-morpholin-4-ylprop-1-en-1-yl]thieno[2,3-b]pyridine-5-carbonitrile] | 56 nM |
| Cc1c(Nc2c(C#N)cnc3sc(/C=C/CN4CCCC4)cc23)ccc2[nH]ccc12 [Compound 276, 4-[(4-methyl-1H-indol-5-yl)amino]-2-[(1E)-3-pyrrolidin-1-ylprop-1-en-1-yl]thieno[2,3-b]pyridine-5-carbonitrile] | 23 nM |
| CN1CCN(C/C=C/c2cc3c(Nc4ccc5[nH]ccc5c4)c(C#N)cnc3s2)CC1 [Compound 277, 4-(1H-indol-5-ylamino)-2-[(1E)-3-(4-methylpiperazin-1-yl)prop-1-en-1-yl]thieno[2,3-b]pyridine-5-carbonitrile] | 304 nM |
| Cc1c(Nc2c(C#N)cnc3sc(/C=C/CN4CCN(C)CC4)cc23)ccc2[nH]ccc12 [Compound 278, 4-[(4-methyl-1H-indol-5-yl)amino]-2-[(1E)-3-(4-methylpiperazin-1-yl)prop-1-en-1-yl]thieno[2,3-b]pyridine-5-carbonitrile] | 12 nM |
| Cc1c(Nc2c(C#N)cnc3sc(/C=C/CN4CCN(C)CC4)c(C)c23)ccc2[nH]ccc12 [Compound 279, 3-methyl-4-[(4-methyl-1H-indol-5-yl)amino]-2-[(1E)-3-(4-methylpiperazin-1-yl)prop-1-en-1-yl]thieno[2,3-b]pyridine-5-carbonitrile] | 17 nM |
| Cc1c(Nc2c(C#N)cnc3sc(/C=C/C(=O)OC(C)(C)C)cc23)ccc2[nH]ccc12 [Compound 286, tert-butyl (2E)-3-{5-cyano-4-[(4-methyl-1H-indol-5-yl)amino]thieno[2,3-b]pyridin-2-yl}acrylate] | 314 nM |
| N#Cc1cnc2sc(/C=C/C(=O)N3CCCC3)cc2c1Nc1ccc2[nH]ccc2c1 [Compound 288, 4-(1H-indol-5-ylamino)-2-[(1E)-3-oxo-3-pyrrolidin-1-ylprop-1-en-1-yl]thieno[2,3-b]pyridine-5-carbonitrile] | 130 nM |
| CC1CCCN1C(=O)/C=C/c1cc2c(Nc3ccc4[nH]ccc4c3)c(C#N)cnc2s1 (centres unmarked) [Compound 291, 4-(1H-indol-5-ylamino)-2-[(1E)-3-(2-methylpyrrolidin-1-yl)-3-oxoprop-1-en-1-yl]thieno[2,3-b]pyridine-5-carbonitrile] | 105 nM |
